Laboratory results published in US10765114B2, “4-amino-6-(pyridyl and 2-substitutedphenyl)-picolinates and 6-amino-2-(pyridyl and 2-substitutedphenyl)-pyrimidine-4-carboxylates and their use as herbicides” (Dow AgroSciences LLC, priority 2013, dated 2020).

What follows are molecules tested on Key Grass and Sedge Weeds as well as Grass Crops (assay: Post-Emergent Test II (Table 6)). Conditions: post-emergence, 336 h, CYPSS, 140 g ai/ha, 14 days after application, read-out: Visual Growth Reduction (%) 14 Days After Application CYPSS.
Assay type: in vivo
Method in brief: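 Visual injury ratings (0 = no injury, 100 = complete kill) were taken 14 days after treatment relative to untreated plants. Seedlings at the first or second true leaf stage received an overhead spray at 187 L/ha, and solvent-blank sprayed plants served as controls.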
In the case of `C#Cc1c(-c2cc(N)c(Cl)c(C(=O)OC)n2)ccc(Cl)c1F` [Compound 75, methyl 4-amino-3-chloro-6-(4-chloro-2-ethynyl-3-fluorophenyl)picolinate], the pest or weed control at 140 g/ha is reported as 0 to 29%.

Same assay, conditions: post-emergence, 336 h, DIGSA: crabgrass (Digitaria sanguinalis), 70 g ai/ha, 14 days after application, read-out: Visual Growth Reduction (%) 14 Days After Application DIGSA
Molecule `C#Cc1c(-c2cc(N)c(Cl)c(C(=O)OC)n2)ccc(Cl)c1F` [Compound 75, methyl 4-amino-3-chloro-6-(4-chloro-2-ethynyl-3-fluorophenyl)picolinate] has a pest or weed control at 70 g/ha of 0 to 29%.

Same assay, conditions: post-emergence, 336 h, DIGSA: crabgrass (Digitaria sanguinalis), 140 g ai/ha, 14 days after application, read-out: Visual Growth Reduction (%) 14 Days After Application DIGSA
With `C#Cc1c(-c2cc(N)c(Cl)c(C(=O)OC)n2)ccc(Cl)c1F` [Compound 75, methyl 4-amino-3-chloro-6-(4-chloro-2-ethynyl-3-fluorophenyl)picolinate] the pest or weed control at 140 g/ha was 0 to 29%.

Same assay, conditions: post-emergence, 336 h, ECHSS, 70 g ai/ha, 14 days after application, read-out: Visual Growth Reduction (%) 14 Days After Application ECHSS
With `C#Cc1c(-c2cc(N)c(Cl)c(C(=O)OC)n2)ccc(Cl)c1F` [Compound 75, methyl 4-amino-3-chloro-6-(4-chloro-2-ethynyl-3-fluorophenyl)picolinate] the pest or weed control at 70 g/ha was 0 to 29%.

Same assay, conditions: post-emergence, 336 h, ECHSS, 140 g ai/ha, 14 days after application, read-out: Visual Growth Reduction (%) 14 Days After Application ECHSS
For `C#Cc1c(-c2cc(N)c(Cl)c(C(=O)OC)n2)ccc(Cl)c1F` [Compound 75, methyl 4-amino-3-chloro-6-(4-chloro-2-ethynyl-3-fluorophenyl)picolinate], the pest or weed control at 140 g/ha was 0 to 29%.

Same assay, conditions: post-emergence, 336 h, ORYSS (crop), 70 g ai/ha, 14 days after application, read-out: Visual Growth Reduction (%) 14 Days After Application ORYSS
`C#Cc1c(-c2cc(N)c(Cl)c(C(=O)OC)n2)ccc(Cl)c1F` [Compound 75, methyl 4-amino-3-chloro-6-(4-chloro-2-ethynyl-3-fluorophenyl)picolinate] showed a pest or weed control at 70 g/ha of 0 to 29%.

Same assay, conditions: post-emergence, 336 h, ORYSS (crop), 140 g ai/ha, 14 days after application, read-out: Visual Growth Reduction (%) 14 Days After Application ORYSS
Molecule `C#Cc1c(-c2cc(N)c(Cl)c(C(=O)OC)n2)ccc(Cl)c1F` [Compound 75, methyl 4-amino-3-chloro-6-(4-chloro-2-ethynyl-3-fluorophenyl)picolinate] has a pest or weed control at 140 g/ha of 0 to 29%.

Same assay, conditions: post-emergence, 336 h, SETFA: giant foxtail (Setaria faberi), 70 g ai/ha, 14 days after application, read-out: Visual Growth Reduction (%) 14 Days After Application SETFA
`C#Cc1c(-c2cc(N)c(Cl)c(C(=O)OC)n2)ccc(Cl)c1F` [Compound 75, methyl 4-amino-3-chloro-6-(4-chloro-2-ethynyl-3-fluorophenyl)picolinate] was tested, and the pest or weed control at 70 g/ha was 0 to 29%.

Same assay, conditions: post-emergence, 336 h, SETFA: giant foxtail (Setaria faberi), 140 g ai/ha, 14 days after application, read-out: Visual Growth Reduction (%) 14 Days After Application SETFA
`C#Cc1c(-c2cc(N)c(Cl)c(C(=O)OC)n2)ccc(Cl)c1F` [Compound 75, methyl 4-amino-3-chloro-6-(4-chloro-2-ethynyl-3-fluorophenyl)picolinate] showed a pest or weed control at 140 g/ha of 0 to 29%.

Same assay, conditions: post-emergence, 336 h, SORVU: grain sorghum (Sorghum vulgare), 70 g ai/ha, 14 days after application, read-out: Visual Growth Reduction (%) 14 Days After Application SORVU
`C#Cc1c(-c2cc(N)c(Cl)c(C(=O)OC)n2)ccc(Cl)c1F` [Compound 75, methyl 4-amino-3-chloro-6-(4-chloro-2-ethynyl-3-fluorophenyl)picolinate] was tested, and the pest or weed control at 70 g/ha was 0 to 29%.

Same assay, conditions: post-emergence, 336 h, SORVU: grain sorghum (Sorghum vulgare), 140 g ai/ha, 14 days after application, read-out: Visual Growth Reduction (%) 14 Days After Application SORVU
`C#Cc1c(-c2cc(N)c(Cl)c(C(=O)OC)n2)ccc(Cl)c1F` [Compound 75, methyl 4-amino-3-chloro-6-(4-chloro-2-ethynyl-3-fluorophenyl)picolinate] showed a pest or weed control at 140 g/ha of 0 to 29%.

Same assay, conditions: post-emergence, 336 h, TRZSS (crop), 70 g ai/ha, 14 days after application, read-out: Visual Growth Reduction (%) 14 Days After Application TRZSS
`C#Cc1c(-c2cc(N)c(Cl)c(C(=O)OC)n2)ccc(Cl)c1F` [Compound 75, methyl 4-amino-3-chloro-6-(4-chloro-2-ethynyl-3-fluorophenyl)picolinate] gave a pest or weed control at 70 g/ha of 0 to 29%.

Same assay, conditions: post-emergence, 336 h, TRZSS (crop), 140 g ai/ha, 14 days after application, read-out: Visual Growth Reduction (%) 14 Days After Application TRZSS
`C#Cc1c(-c2cc(N)c(Cl)c(C(=O)OC)n2)ccc(Cl)c1F` [Compound 75, methyl 4-amino-3-chloro-6-(4-chloro-2-ethynyl-3-fluorophenyl)picolinate] was tested, and the pest or weed control at 140 g/ha was 0 to 29%.

Same assay, conditions: post-emergence, 336 h, ZEAMX: maize, corn (Zea mays), 70 g ai/ha, 14 days after application, read-out: Visual Growth Reduction (%) 14 Days After Application ZEAMX
Molecule `C#Cc1c(-c2cc(N)c(Cl)c(C(=O)OC)n2)ccc(Cl)c1F` [Compound 75, methyl 4-amino-3-chloro-6-(4-chloro-2-ethynyl-3-fluorophenyl)picolinate] has a pest or weed control at 70 g/ha of 0 to 29%.

Same assay, conditions: post-emergence, 336 h, ZEAMX: maize, corn (Zea mays), 140 g ai/ha, 14 days after application, read-out: Visual Growth Reduction (%) 14 Days After Application ZEAMX
Work on `C#Cc1c(-c2cc(N)c(Cl)c(C(=O)OC)n2)ccc(Cl)c1F` [Compound 75, methyl 4-amino-3-chloro-6-(4-chloro-2-ethynyl-3-fluorophenyl)picolinate] yielded a pest or weed control at 140 g/ha of 0 to 29%.
